2 molecules from patent publication US20170045494A1, “SYSTEMS AND METHODS FOR IDENTIFYING COAGULOPATHIES” (T2 Biosystems, Inc., priority 2014, published 2017) can be followed below.

Some results are limits rather than exact numbers.

Holding throughout (format): cell-based, human
Experiment [1] relates to re-calcified citrated blood clotted with thrombin. Put plainly: T2MR monitoring of fibrinolysis of thrombin-clotted blood. Particulars: tPA added 30 minutes after 3 U/ml thrombin. The protocol: Blood clotting was initiated by addition of 2 μL of a 0.2 M CaCl2 solution and 2 μL of thrombin (Sigma-Aldrich, St. Louis, Mo., final concentration 0.1-3.0 U/ml) to 34 μL of blood in a 200 μL PCR tube (Eppendorf, Hauppauge, N.Y.). All components were pre-warmed for 1 min at 37° C. before mixing. Samples were mixed by three aspiration and dispersion cycles using a pipette, then put into the T2MR reader for measurement. Typical run length was 30 min with a 10 s sampling rate. For some experiments, data collection time was extended to 1 hr.
To establish T2MR signatures for fibrinolysis, tissue plasminogen activator (tPA, Alteplase, Genentech, South San Francisco, Calif.) was added to samples clotted by thrombin. Blood clotting was initiated as described above, and the sample was incubated for […] to allow for complete clot contraction. Then, 0.5-1 μM tPA was added to clotted and contracted samples. Care was taken not to disturb clots, which were usually attached to the tube wall. The pipette tip was carefully placed into the visible serum layer on the tube side opposite to the contracted clot, and 3 μL of tPA solution was added with a single dispensing of the pipettor. The tPA solutions were made from a stock solution prepared according to manufacturer instructions using 0.15 M sodium chloride, pH 7.4.
We measured the dependencies of the T2MR signals during clotting of re-calcified citrated blood samples from healthy donors initiated by adding 3 U/ml thrombin. Thrombin activates platelets and cleaves fibrinogen to form a three-dimensional fibrin network stabilized by factor XIIIa. Addition of thrombin led to rapid formation of a gelatinous meshwork that filled the sample volume accompanied by a small, rapid decrease in the T2MR signal over tens of seconds due to the sample transitioning from a liquid to gel state. […]
We then assessed the sensitivity of the T2MR platform to fibrinolysis by adding tissue-type plasminogen activator (tPA) to the clotted samples 30 minutes after thrombin.

Experiment [2] relates to citrated blood. Put plainly: Thromboelastography maximum amplitude (TEG MA) after calcium and kaolin activation. Particulars: ex vivo addition at 4 or 8 μg/ml; samples from 3 healthy donors. The protocol:
(§1) A 0.5 mg/ml solution of abciximab was prepared by diluting the stock 10 mg/5 ml solution by […] in saline. The abciximab-treated blood samples were incubated for at least 5 min prior to clotting. Clotting was initiated by adding 2 μL 0.2 M CaCl2 and 2 μL TEG kaolin to 34 μL of abciximab-treated blood sample. To compare the T2MR signal to TEG MA, a ΔT2 parameter was calculated by taking the difference in T2 between the upper and middle peaks at a time point 13 min after adding calcium and kaolin. The TEG MA values were measured on the same samples following manufacturer instructions.
(§2) For comparison between T2MR and TEG, calcium kaolin activation of citrated blood was used and normal donor samples were treated with various amounts of abciximab, an inhibitor of the platelet glycoprotein allbβ3 receptor that binds fibrin and is essential for clot contraction.

For experiment [3], the system named is citrated blood. Put plainly: T2MR clot strength (ΔT2) after calcium and kaolin activation. Particulars: ex vivo addition at 4 or 8 μg/ml; 13 minutes after activation; samples from 3 healthy donors. As for the experimental part:
as §1, §2

Consider Alteplase [tPA], for which, in experiment [1], the “T2 value of the middle peak after tPA addition” value is on record as “decreased from 250 to 175”, the “T2 value of the third peak after tPA addition (persisted)” value is approximately 100 ms and the “T2 value of the upper peak after tPA addition” value is “decreased rapidly”.

B1: abciximab (antibody, chains of the INN, looked up, V domains shown)
VH: EVQLQQSGTVLARPGASVKMSCEASGYTFTNYWMHWVKQRPGQGLEWIGAIYPGNSDTSYIQKFKGKAKLTAVTSTTSVYMELSSLTNEDSAVYYCTLYDGYYVFAYWGQGTLVTVSA
VL: EIVLTQSPVTLSVTPGDSVSLSCRASRDISNNLHWFQQTSHESPRLLIKYASQSMSGIPSRFSGSGSGTDFTLSINSVETEDFGMYFCQQTNSWPYTFGGGTKLEIK
modifications: Fab
With B1, the “TEG MA” value in the experiment on citrated blood [2] is “less than 40”. Further, the “ΔT2 (difference between upper and middle T2 values in the T2MR signature)” value with citrated blood [3] is less than 100 ms.
